Test results: patent US20230218710A1, “METHOD OF TREATING CORONAVIRUS INFECTIONS” (priority 2020, published 2023)
Square brackets hold non-standard residues; d marks the D form. Peptide text beside a SMILES is read from it.

Tested on: not listed separately
Assay: in vitro
Details: human, pooled human plasma
Protocol: The metabolic stability of the peptides can be assessed in vitro by incubation in plasma and determination of the amount of peptide remaining over time. Peptides (50 μM) were incubated in pooled plasma from mice, monkeys, and humans at 37° C. Samples were removed at intervals up to 3 hours and immediately analyzed for the concentration of intact peptide by LC/MS/MS. The percent of peptide remaining in plasma at each time point was calculated relative to the initial peak area.

Row | Compound | remaining at 0.5 h, 50 μM
1 | CC[C@H](C)[C@H](NC(=O)[C@H](CCCNC(=N)N)NC(=O)[C@@H](N)CCCNC(=N)N)C(=O)N[C@H](C(=O)N[C@H](C)C(=O)N[C@H](C(=O)N[C@H](C(=O)N[C@@H](Cc1ccccc1)C(=O)N[C@@H](CCC(N)=O)C(=O)N[C@@H](CS)C(=O)N[C@@H](CC(C)C)C(=O)N[C@@H](CS)C(=O)N[C@H](C)C(=O)N[C@@H](CC(C)C)C(=O)O)C(C)C)[C@@H](C)CC)[C@@H](C)CC [compound 9] (H-RRII[dA]IVFQCLC[dA]L-OH) | 92.5%
2 | CSCC[C@H](NC(=O)CNC(=O)[C@H](CCSC)NC(=O)[C@H](CCSC)NC(=O)[C@H](CCCNC(=N)N)NC(=O)[C@@H](N)CCCNC(=N)N)C(=O)N[C@H](C(=O)N[C@@H](Cc1ccccc1)C(=O)N[C@@H](CCC(N)=O)C(=O)O)C(C)C [compound 58] (H-RRMMGMVFQ-OH) | 69.5%
3 | CSCC[C@H](NC(=O)CNC(=O)[C@H](CCSC)NC(=O)[C@H](CCSC)NC(=O)[C@@H](N)CCCNC(=N)N)C(=O)N[C@H](C(=O)N[C@@H](Cc1ccccc1)C(=O)N[C@@H](CCC(N)=O)C(=O)N[C@@H](CO)C(=O)N[C@@H](CC(C)C)C(=O)O)C(C)C [compound 53] (H-RMMGMVFQSL-OH) | 85.8%
4 | CSCC[C@H](NC(=O)CNC(=O)[C@H](CCSC)NC(=O)[C@H](CCSC)NC(=O)[C@H](CCCNC(=N)N)NC(=O)[C@@H](N)CCCNC(=N)N)C(=O)N[C@H](C(=O)N[C@@H](Cc1ccccc1)C(=O)N[C@@H](CCC(N)=O)C(=O)N[C@@H](CO)C(=O)O)C(C)C [compound 59] (H-RRMMGMVFQS-OH) | 62.9%
5 | CSCC[C@H](NC(=O)CNC(=O)[C@H](CCSC)NC(=O)[C@H](CCSC)NC(=O)[C@H](CCCNC(=N)N)NC(=O)[C@@H](N)CCCNC(=N)N)C(=O)N[C@H](C(=O)O)C(C)C [compound 56] (H-RRMMGMV-OH) | 92.1%
6 | CSCC[C@H](NC(=O)CNC(=O)[C@H](CCSC)NC(=O)[C@@H](N)CCSC)C(=O)N[C@H](C(=O)N[C@@H](Cc1ccccc1)C(=O)O)C(C)C [compound 45] (H-MMGMVF-OH) | 90.8%
7 | CSCC[C@H](NC(=O)CNC(=O)[C@H](CCSC)NC(=O)[C@@H](N)CCSC)C(=O)N[C@H](C(=O)N[C@@H](Cc1ccccc1)C(=O)N[C@@H](CCC(N)=O)C(=O)N[C@@H](CO)C(=O)N[C@@H](CC(C)C)C(=O)O)C(C)C [compound 48] (H-MMGMVFQSL-OH) | 92%
8 | CSCC[C@H](NC(=O)CNC(=O)[C@H](CCSC)NC(=O)[C@@H](N)CCSC)C(=O)N[C@H](C(=O)N[C@@H](Cc1ccccc1)C(=O)N[C@@H](CCC(N)=O)C(=O)N[C@@H](CO)C(=O)O)C(C)C [compound 47] (H-MMGMVFQS-OH) | 86.1%
9 | CSCC[C@H](NC(=O)CNC(=O)[C@H](CCSC)NC(=O)[C@H](CCSC)NC(=O)[C@@H](N)CCCNC(=N)N)C(=O)N[C@H](C(=O)N[C@@H](Cc1ccccc1)C(=O)N[C@@H](CCC(N)=O)C(=O)O)C(C)C [compound 51] (H-RMMGMVFQ-OH) | 100%
10 | CSCC[C@H](NC(=O)CNC(=O)[C@H](CCSC)NC(=O)[C@H](CCSC)NC(=O)[C@H](CCCNC(=N)N)NC(=O)[C@@H](N)CCCNC(=N)N)C(=O)N[C@H](C(=O)N[C@@H](Cc1ccccc1)C(=O)N[C@@H](CCC(N)=O)C(=O)N[C@@H](CO)C(=O)N[C@@H](CC(C)C)C(=O)O)C(C)C [compound 60] (H-RRMMGMVFQSL-OH) | 95%
11 | CSCC[C@H](NC(=O)CNC(=O)[C@H](CCSC)NC(=O)[C@H](CCSC)NC(=O)[C@@H](N)CCCNC(=N)N)C(=O)N[C@H](C(=O)N[C@@H](Cc1ccccc1)C(=O)N[C@@H](CCC(N)=O)C(=O)N[C@@H](CO)C(=O)O)C(C)C [compound 52] (H-RMMGMVFQS-OH) | 97.5%
12 | CSCC[C@H](NC(=O)CNC(=O)[C@H](CCSC)NC(=O)[C@H](CCSC)NC(=O)[C@H](CCCNC(=N)N)NC(=O)[C@H](CCCNC(=N)N)NC(=O)[C@@H](N)CCSC)C(=O)N[C@H](C(=O)N[C@@H](Cc1ccccc1)C(=O)N[C@@H](CCC(N)=O)C(=O)N[C@@H](CS)C(=O)N[C@@H](CC(C)C)C(=O)N[C@@H](CS)C(=O)NCC(=O)N[C@@H](CC(C)C)C(=O)O)C(C)C [compound 7] | 52.4%
13 | CSCC[C@H](NC(=O)CNC(=O)[C@H](CCSC)NC(=O)[C@H](CCSC)NC(=O)[C@H](CCCNC(=N)N)NC(=O)[C@@H](N)CCCNC(=N)N)C(=O)N[C@H](C(=O)N[C@@H](Cc1ccccc1)C(=O)N[C@@H](CCC(N)=O)C(=O)N[C@@H](CO)C(=O)N[C@@H](CC(C)C)C(=O)N[C@@H](CS)C(=O)NCC(=O)N[C@H](C)C(N)=O)C(C)C [compound 62] | 30.3%
14 | CSCC[C@H](NC(=O)CNC(=O)[C@H](CCSC)NC(=O)[C@H](CCSC)NC(=O)[C@@H](N)CCCNC(=N)N)C(=O)N[C@H](C(=O)N[C@@H](Cc1ccccc1)C(=O)O)C(C)C [compound 50] (H-RMMGMVF-OH) | 87.7%
15 | CSCC[C@H](NC(=O)CNC(=O)[C@H](CCSC)NC(=O)[C@H](CCSC)NC(=O)[C@H](CCCNC(=N)N)NC(=O)[C@@H](N)CCCNC(=N)N)C(=O)N[C@H](C(=O)N[C@@H](Cc1ccccc1)C(=O)O)C(C)C [compound 57] (H-RRMMGMVF-OH) | 91.9%
16 | CSCC[C@H](NC(=O)CNC(=O)[C@H](CCSC)NC(=O)[C@@H](N)CCSC)C(=O)N[C@H](C(=O)N[C@@H](Cc1ccccc1)C(=O)N[C@@H](CCC(N)=O)C(=O)O)C(C)C [compound 46] (H-MMGMVFQ-OH) | 100%
17 | CSCC[C@H](NC(=O)CNC(=O)[C@H](CCSC)NC(=O)[C@H](CCSC)NC(=O)[C@H](CCCNC(=N)N)NC(=O)[C@@H](N)CCCNC(=N)N)C(=O)O [compound 55] (H-RRMMGM-OH) | 100%

Molecular target: T1, Apelin Receptor (APJ) (Homo sapiens, UniProt P35414)
T1 construct: host or cells: CHO-K1 AGTRL1 Gi cells
T1 sequence (P35414 1-380): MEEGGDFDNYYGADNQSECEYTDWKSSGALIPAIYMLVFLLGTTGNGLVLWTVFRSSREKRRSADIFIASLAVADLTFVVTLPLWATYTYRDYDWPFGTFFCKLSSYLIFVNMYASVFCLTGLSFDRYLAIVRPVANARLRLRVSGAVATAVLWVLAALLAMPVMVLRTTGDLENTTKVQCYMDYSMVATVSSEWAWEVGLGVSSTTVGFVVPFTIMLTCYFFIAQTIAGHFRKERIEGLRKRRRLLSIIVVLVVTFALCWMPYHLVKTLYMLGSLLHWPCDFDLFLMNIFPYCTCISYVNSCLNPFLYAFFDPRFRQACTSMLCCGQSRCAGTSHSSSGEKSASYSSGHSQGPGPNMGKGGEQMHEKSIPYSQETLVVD
Assay: cell-based
Details: CHO-K1, 0.5 h, read-out: Percent of Pyr-Apelin-13 Control Activity
Protocol: Peptides were initially prepared as 30 mM stock in DMSO and diluted to 3 mM in H2O or directly as 3 mM stock in H2O; used at a final concentration of 10 μM (0-0.1% DMSO).

Row | Compound | Emax at 10 µM
18 | COCCOCCOCCOCCOCCOCCOCCOCCOCCOCCOCCOCCC(=O)N[C@@H](CCCCN)C(=O)N[C@@H](CCCNC(=N)N)C(=O)N[C@@H](CCCNC(=N)N)C(=O)N[C@@H](CCSC)C(=O)N[C@@H](CCSC)C(=O)NCC(=O)N[C@@H](CCSC)C(=O)N[C@H](C(=O)N[C@@H](Cc1ccccc1)C(=O)N[C@@H](CCC(N)=O)C(=O)N[C@@H](CO)C(=O)N[C@@H](CC(C)C)C(=O)N[C@@H](CS)C(=O)NCC(=O)N[C@H](C)C(=O)O)C(C)C [compound 36] | 101%
19 | COCCOCCOCCOCCOCCOCCOCCOCCOCCOCCOCCOCCC(=O)N[C@@H](CCCCN)C(=O)N[C@@H](CCCNC(=N)N)C(=O)N[C@@H](CCCNC(=N)N)C(=O)N[C@@H](CC(C)C)C(=O)N[C@@H](CC(C)C)C(=O)NCC(=O)N[C@@H](CC(C)C)C(=O)N[C@H](C(=O)N[C@@H](Cc1ccccc1)C(=O)N[C@@H](CCC(N)=O)C(=O)N[C@@H](CO)C(=O)N[C@@H](CC(C)C)C(=O)N[C@@H](CS)C(=O)NCC(=O)N[C@H](C)C(=O)O)C(C)C [compound 37] | 53%

Molecular target: human APJ (Homo sapiens, UniProt P35414)
Sequence (P32121 whole entry partner, one chain of several): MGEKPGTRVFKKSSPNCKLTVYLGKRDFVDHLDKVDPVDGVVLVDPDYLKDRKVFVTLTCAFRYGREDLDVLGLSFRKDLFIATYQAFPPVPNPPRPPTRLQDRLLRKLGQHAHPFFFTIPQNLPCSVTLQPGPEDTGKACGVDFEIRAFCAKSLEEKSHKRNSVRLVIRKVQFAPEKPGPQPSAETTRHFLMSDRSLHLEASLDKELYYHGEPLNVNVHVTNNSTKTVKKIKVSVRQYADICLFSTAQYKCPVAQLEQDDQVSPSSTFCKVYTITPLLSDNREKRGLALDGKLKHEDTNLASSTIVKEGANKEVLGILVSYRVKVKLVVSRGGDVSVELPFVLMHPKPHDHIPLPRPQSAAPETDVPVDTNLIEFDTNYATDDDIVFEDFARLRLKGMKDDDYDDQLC
Assay: cell-based
Details: CHO-K1, 1.5 h, read-out: Percent of Apelin-13 Control Activity
Protocol: The effect of the peptides on activation of Apelin Receptor (APJ) can be assessed using an assay to monitor β-Arrestin recruitment in cultured cells overexpressing APJ such as CHO-K1, derived from Chinese hamster ovary. β-Arrestin recruitment assays were performed by Eurofins-DiscoverX (Fremont, Calif.) using CHO-K1 AGTRL1 β-Arrestin cell line (co-expressing ProLink tagged human APJ and Enzyme Acceptor tagged β-Arrestin) and PathHunter detection kit. Peptides were initially prepared either as 10 mM stock in DMSO and used at a final concentration of 10 μM (0.1% DMSO). CHO-K1 AGTRL1 β-Arrestin cells were seed onto 384-well plates in standard medium. […] Following 90 min. incubation at 37° C., β-Arrestin recruitment in response to various treatments was quantified using a chemiluminescent complementation reporter assay to measure association of tagged human APJ (ProLink tag) and tagged β-Arrestin (Enzyme Acceptor tag).

Row | Compound | Emax at 10 µM
20 | COCCOCCOCCOCCOCCOCCOCCOCCOCCOCCOCCOCCC(=O)N[C@@H](CCCCN)C(=O)N[C@@H](CCCNC(=N)N)C(=O)N[C@@H](CCCNC(=N)N)C(=O)N[C@@H](CCSC)C(=O)N[C@@H](CCSC)C(=O)NCC(=O)N[C@@H](CCSC)C(=O)N[C@H](C(=O)N[C@@H](Cc1ccccc1)C(=O)N[C@@H](CCC(N)=O)C(=O)N[C@@H](CO)C(=O)N[C@@H](CC(C)C)C(=O)N[C@@H](CS)C(=O)NCC(=O)N[C@H](C)C(=O)O)C(C)C [compound 36] | 63%
21 | COCCOCCOCCOCCOCCOCCOCCOCCOCCOCCOCCOCCC(=O)N[C@@H](CCCCN)C(=O)N[C@@H](CCCNC(=N)N)C(=O)N[C@@H](CCCNC(=N)N)C(=O)N[C@@H](CC(C)C)C(=O)N[C@@H](CC(C)C)C(=O)NCC(=O)N[C@@H](CC(C)C)C(=O)N[C@H](C(=O)N[C@@H](Cc1ccccc1)C(=O)N[C@@H](CCC(N)=O)C(=O)N[C@@H](CO)C(=O)N[C@@H](CC(C)C)C(=O)N[C@@H](CS)C(=O)NCC(=O)N[C@H](C)C(=O)O)C(C)C [compound 37] | 12%

Tested on: LPS-induced acute lung injury mouse model
Assay: LPS-induced acute lung injury model in mouse (Example 6)
Format: in vivo, mice
Details: histopathology, 0-5 scale, 24 h after LPS, 5 mg/kg i.p.
Protocol: The effect of the peptides of the current invention on acute lung injury can be assessed in an LPS-induced acute lung injury mouse model by monitoring outcomes such as lung weight, fluid accumulation, cytokine secretion in blood or bronchoalveolar lavage fluid (BALF), neutrophil infiltration into lung tissues, and assessment of acute lung injury score by histopathology. Acute lung injury was induced in male C57BL/6 mice (6 to 8 weeks old) by intratracheal administration of 40 μL lipopolysaccharide (LPS) (Sigma Aldrich, St. Louis, Mo.) in PBS at 5 mg/kg. Control animals received intratracheal PBS alone. […] Treatments were administered 1 h prior to LPS for animals designated for sacrifice at 4 h after LPS, or at both 1 h prior to and 6 h after LPS for animals designated for sacrifice at 24 h after LPS. At 4 or 24 hours post LPS administration, tissues were harvested. Lungs were weighed, flushed with Hanks Buffer to provide bronchoalveolar lavage fluid (BALF). Lungs were fixed in 10% neutral buffered formalin (NBF) for histopathology. Tissue slides were stained with hematoxylin and eosin (H&E) and evaluated and scored with light microscopy of 5 representative microscopic fields (100× magnification) scoring on a 0-5 scale using standard methods (Matute-Bello G et al 2011. An Official American Thoracic Society Workshop Report: Features and Measurements of Experimental Acute Lung Injury in Animals. Am J Respir Cell Mol Biol 44:725-38). The average score for five fields was calculated for each animal. Levels of pro-inflammatory cytokines in BALF were determined using a meso scale discovery (MSD) system. Data for test peptides were compared to the vehicle control group. Lung weights were normalized to body weight.

Row | Compound | Mean (SEM) Alveolar Neutrophil Infiltration Score | Mean (SEM) Interstitial Neutrophil Infiltration Score
22 | (PEG12)KRRMMGMVFQSLCG(dA) (KRRMMGMVFQSLCGA; N-terminal PEG12; C-terminal D-alanine; (1)..(1) PEG12; (15)..(15) D-Ala) [SEQ ID NO: 36] | 1.98 (0.18) | 1.60 (0.14)

Same assay, conditions: histopathology, 24 h after LPS, 5 mg/kg i.p.

Row | Compound | Mean (SEM) Composite Lung Injury Score
23 | (PEG12)KRRMMGMVFQSLCG(dA) (KRRMMGMVFQSLCGA; N-terminal PEG12; C-terminal D-alanine; (1)..(1) PEG12; (15)..(15) D-Ala) [SEQ ID NO: 36] | 3.65 (0.28)
